From patent US20030032655A1, “Heme oxygenase-1 inducers or induction enhancers” (priority 2000, published 2003)

Key:
HO-1 protein = conditions: after injection of autologous arterial blood; compound i.v. 2 days; basilar arterial walls, day 2
Text: The same animal model as in Example 1 was used to study changes in HO-1 protein expression level after the same treatment as shown in Example 1. The changes in protein expression level were detected by Coomassie staining and Western blotting, as described in the abovementioned reference. In this figure, the upper and lower panels show the results of Coomassie staining and Western blotting, respectively. Each of the lanes shown in FIG. 2 has the same definition as the corresponding sample in FIG. 1.

HO-1 mRNA = conditions: blood i.c. + compound i.v. 1 mg/kg/min continuously for 2 days; basilar arterial walls, day 2; vs blood i.c.+saline i.v.
Description: The preparation of rat cerebral vasospasm model and the determination of HO-1 mRNA expression level were performed according to a documented method (see The Journal of Clinical Investigation, Vol. 104, No. 1, July 1999).
Each single hemorrhage model was injected with 0.5 ml autologous arterial blood into its cisterna magna. […] After administration, the level of mRNA expressed in basilar arterial walls was determined on day 2 using a quantitative RT-PCR technique.
It is for this reason that the mRNA expression level was determined on day 2.
All data were expressed as mean±SEM. The expression level of HO-2 was used as a denominator in calculating the ratio because the expression level of HO-2 was not assumed to change appreciably in this model and therefore, when used as a denominator, would enable changes in HO-1 expression level to be objectively evaluated while ignoring individual differences. […] The data were statistically processed according to variance analysis. A single asterisk (*) denotes a statistically significant difference from “saline i.c.” at p<0.05 level and two asterisks (**) denote a statistically significant difference from “blood i.c.+saline i.v.” at p<0.01 level.

[1] = tested on: delayed cerebral vasospasm
Description: The same model as in Example 1 was used to study changes over time in basilar artery diameter. The determination of basilar artery diameter was performed as described in the above-mentioned reference. That is, the diameter was measured angiographically on days 1 to 7 and expressed as a % change from the original diameter (% change before treatment was set to 0).
All data were expressed as mean±SEM.
The data was statistically processed such that intragroup comparison was performed by paired t-test and intergroup comparison was performed according to variance analysis.

CC(CNC(=O)c1cccnc1)NC(=O)c1cccnc1 (stereo not shown) [1,2-bis(nicotinamide)propane]
HO-1 protein induction (HO-1 protein): causes or enhances HO-1 protein induction
HO-1 mRNA expression level (HO-1/HO-2 ratio) (HO-1 mRNA): significant increase in HO-1 mRNA expression level
delayed cerebral vasospasm (% change in basilar artery diameter) ([1]; blood i.c. + compound i.v. continuously for 7 days, angiography days 1 to 7): significant amelioration of delayed cerebral vasospasm
diameter of cerebral blood vessels in the absence of hemorrhage ([1]; saline i.c. + compound i.v. continuously for 7 days): not affected
